Assay results taken from patent US7074789B2, “Kinase inhibitors” (Amgen Inc., priority 1999, dated 2006).
pIC50: −log10 of the molar value.

What was measured:
Format in all cases: biochemical
ErbB2 = target: T1, ErbB2 (Homo sapiens, UniProt P04626); assay: Kinase inhibition assay (33P transfer), ErbB2; settings: read-out: ErbB2-2
T1 construct: Kinases are expressed as either kinase domains or full length constructs; made in house
Summary of the method: (§1)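 Activity read as 33P incorporation from ATP into poly(Glu,Tyr) 4:1 or poly(Arg,Ser) 3:1 substrate bound to microtiter plates, measured by scintillation after acid washing. Enzymes were affinity-purified GST or polyHis fusions (kinase domain or full length) from E. coli or baculovirus; IC50 = 50% reduction in labelled phosphate.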

Zap-70 = target: T2, Zap-70 (Homo sapiens, UniProt P43403); assay: Kinase inhibition assay (33P transfer), Zap-70; settings: Table 3, class symbols; read-out: Zap-1
T2 construct: Kinases are expressed as either kinase domains or full length constructs; made in house
T2 sequence (P43403 1-619): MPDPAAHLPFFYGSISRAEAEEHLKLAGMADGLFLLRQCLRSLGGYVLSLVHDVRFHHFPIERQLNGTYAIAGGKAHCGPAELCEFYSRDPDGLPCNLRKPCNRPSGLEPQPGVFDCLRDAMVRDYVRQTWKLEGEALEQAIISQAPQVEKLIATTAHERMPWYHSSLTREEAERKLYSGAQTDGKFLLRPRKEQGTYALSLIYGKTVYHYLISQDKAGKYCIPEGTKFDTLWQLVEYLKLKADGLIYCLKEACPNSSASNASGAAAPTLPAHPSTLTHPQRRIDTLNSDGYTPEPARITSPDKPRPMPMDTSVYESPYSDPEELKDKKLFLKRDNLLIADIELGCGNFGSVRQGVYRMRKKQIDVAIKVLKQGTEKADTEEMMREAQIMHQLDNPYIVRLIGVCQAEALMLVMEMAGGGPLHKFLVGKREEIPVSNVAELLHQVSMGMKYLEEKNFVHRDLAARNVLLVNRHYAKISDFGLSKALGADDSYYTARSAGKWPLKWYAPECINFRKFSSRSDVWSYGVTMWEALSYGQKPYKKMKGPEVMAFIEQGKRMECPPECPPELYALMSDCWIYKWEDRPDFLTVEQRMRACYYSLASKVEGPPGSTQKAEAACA
Summary of the method: (§2)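 33P-ATP transfer to coated synthetic polymer substrates; acid wash (0.5% H3PO4), scintillant, liquid scintillation count. Enzymes: His- or GST-fusion kinases from E. coli or High Five insect cells.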

EGFR = target: T3, EGFR (Homo sapiens, UniProt P00533); assay: Kinase inhibition assay (33P transfer), EGFR; settings: Table 2, class symbols A-E; read-out: EGFR-1
T3 construct: Kinases are expressed as either kinase domains or full length constructs; made in house
Summary of the method: as §1

Kdr = target: T4, Kdr (Homo sapiens, UniProt P35968); assay: Kinase inhibition assay (33P transfer), Kdr; settings: Table 3, class symbols; read-out: KDR-1
T4 construct: Kinases are expressed as either kinase domains or full length constructs; made in house
Summary of the method: as §2

AKT = target: T5, AKT (Homo sapiens, UniProt Q9Y243); assay: Kinase inhibition assay (33P transfer), AKT; settings: Table 2, class symbols A-E; read-out: AKT3-1
T5 construct: Kinases are expressed as either kinase domains or full length constructs; made in house
Summary of the method: as §2

PDGFRB = target: T6, PDGFRB (Homo sapiens, UniProt P09619); assay: Kinase inhibition assay (33P transfer), PDGFRB; settings: read-out: PDGFRB-1
T6 construct: Kinases are expressed as either kinase domains or full length constructs; made in house

Itk = target: T7, Itk (Homo sapiens, UniProt Q08881); assay: Kinase inhibition assay (33P transfer), Itk; settings: Table 3, class symbols; read-out: Itk-1
T7 construct: Kinases are expressed as either kinase domains or full length constructs; made in house
T7 sequence (Q08881 1-620): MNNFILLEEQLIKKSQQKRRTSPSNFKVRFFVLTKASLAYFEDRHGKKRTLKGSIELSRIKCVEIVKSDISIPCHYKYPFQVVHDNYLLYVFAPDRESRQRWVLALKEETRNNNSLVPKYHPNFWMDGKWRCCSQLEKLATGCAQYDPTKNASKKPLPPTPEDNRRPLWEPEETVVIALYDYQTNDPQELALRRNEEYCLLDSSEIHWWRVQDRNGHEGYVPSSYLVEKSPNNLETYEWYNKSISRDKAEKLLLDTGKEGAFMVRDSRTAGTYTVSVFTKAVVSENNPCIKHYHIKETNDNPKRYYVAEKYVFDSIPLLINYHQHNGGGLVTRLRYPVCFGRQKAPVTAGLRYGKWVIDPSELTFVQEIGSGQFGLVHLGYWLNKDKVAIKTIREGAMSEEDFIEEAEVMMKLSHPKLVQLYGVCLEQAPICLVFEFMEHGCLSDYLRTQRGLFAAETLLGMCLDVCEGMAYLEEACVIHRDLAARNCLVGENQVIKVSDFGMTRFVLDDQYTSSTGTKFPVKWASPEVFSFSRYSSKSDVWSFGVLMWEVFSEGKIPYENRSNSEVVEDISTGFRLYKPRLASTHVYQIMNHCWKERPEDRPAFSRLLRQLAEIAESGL
Summary of the method: as §1

Lck = target: T8, Lck (Homo sapiens, UniProt P06239); assay: Kinase inhibition assay (33P transfer), Lck; settings: Table 3, class symbols; read-out: Lck-1
T8 construct: Kinases are expressed as either kinase domains or full length constructs; made in house
Summary of the method: as §2

IGFR-1 = target: T9, IGFR-1 (Homo sapiens, UniProt P08069); assay: Kinase inhibition assay (33P transfer), IGFR-1; settings: Table 2, class symbols A-E
T9 construct: Kinases are expressed as either kinase domains or full length constructs; made in house

c-Met = target: T10, c-Met (Homo sapiens, UniProt P08581); assay: Kinase inhibition assay (33P transfer), c-Met; settings: Table 2, class symbols A-E; read-out: Met-1
T10 construct: Kinases are expressed as either kinase domains or full length constructs; made in house
Summary of the method: as §1

T1 sequence (P04626 23-1255, species assumed): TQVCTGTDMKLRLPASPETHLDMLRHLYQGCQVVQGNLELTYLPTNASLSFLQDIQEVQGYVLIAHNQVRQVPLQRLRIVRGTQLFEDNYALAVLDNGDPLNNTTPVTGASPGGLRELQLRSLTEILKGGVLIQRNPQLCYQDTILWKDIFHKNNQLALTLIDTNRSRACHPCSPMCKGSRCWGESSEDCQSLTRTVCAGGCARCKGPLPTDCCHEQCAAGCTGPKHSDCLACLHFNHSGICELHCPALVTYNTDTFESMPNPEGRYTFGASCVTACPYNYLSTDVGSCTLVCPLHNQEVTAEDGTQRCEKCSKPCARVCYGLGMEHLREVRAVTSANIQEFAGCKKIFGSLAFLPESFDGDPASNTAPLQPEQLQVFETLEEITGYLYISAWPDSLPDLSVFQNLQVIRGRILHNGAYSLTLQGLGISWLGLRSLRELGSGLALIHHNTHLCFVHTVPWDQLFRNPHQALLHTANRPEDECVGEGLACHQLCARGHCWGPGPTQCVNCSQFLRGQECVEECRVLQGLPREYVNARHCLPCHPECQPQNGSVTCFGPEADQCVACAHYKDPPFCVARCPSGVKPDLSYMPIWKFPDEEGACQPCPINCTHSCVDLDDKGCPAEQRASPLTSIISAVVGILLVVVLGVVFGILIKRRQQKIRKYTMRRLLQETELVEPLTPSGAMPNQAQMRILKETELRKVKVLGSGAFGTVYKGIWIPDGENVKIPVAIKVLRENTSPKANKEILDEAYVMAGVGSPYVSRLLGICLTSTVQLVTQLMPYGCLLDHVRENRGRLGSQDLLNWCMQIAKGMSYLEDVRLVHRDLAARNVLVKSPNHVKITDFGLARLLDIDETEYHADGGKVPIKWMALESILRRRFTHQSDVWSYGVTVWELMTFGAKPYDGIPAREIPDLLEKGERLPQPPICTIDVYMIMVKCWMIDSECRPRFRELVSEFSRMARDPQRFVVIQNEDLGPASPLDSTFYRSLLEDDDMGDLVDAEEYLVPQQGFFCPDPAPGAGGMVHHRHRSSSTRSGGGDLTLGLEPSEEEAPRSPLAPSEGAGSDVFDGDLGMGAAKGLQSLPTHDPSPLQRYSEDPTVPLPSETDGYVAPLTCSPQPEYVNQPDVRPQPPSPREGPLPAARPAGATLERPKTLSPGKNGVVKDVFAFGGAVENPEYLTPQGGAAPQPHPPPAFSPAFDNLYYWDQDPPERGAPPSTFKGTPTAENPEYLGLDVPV
T5 sequence (Q9Y243 whole entry, the tested form may be a part): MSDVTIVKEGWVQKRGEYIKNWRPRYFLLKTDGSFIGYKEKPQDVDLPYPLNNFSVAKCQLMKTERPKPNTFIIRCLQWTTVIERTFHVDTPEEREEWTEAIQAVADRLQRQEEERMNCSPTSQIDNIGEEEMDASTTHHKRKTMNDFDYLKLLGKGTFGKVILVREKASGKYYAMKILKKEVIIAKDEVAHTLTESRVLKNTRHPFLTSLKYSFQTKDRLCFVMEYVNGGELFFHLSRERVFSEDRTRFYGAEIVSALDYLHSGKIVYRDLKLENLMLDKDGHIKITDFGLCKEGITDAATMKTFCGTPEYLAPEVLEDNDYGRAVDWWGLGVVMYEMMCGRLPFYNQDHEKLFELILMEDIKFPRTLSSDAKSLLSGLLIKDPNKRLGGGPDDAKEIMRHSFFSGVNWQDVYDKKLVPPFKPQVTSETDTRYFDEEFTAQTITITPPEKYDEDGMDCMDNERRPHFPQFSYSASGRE
T4 sequence (P35968 20-1356, species assumed): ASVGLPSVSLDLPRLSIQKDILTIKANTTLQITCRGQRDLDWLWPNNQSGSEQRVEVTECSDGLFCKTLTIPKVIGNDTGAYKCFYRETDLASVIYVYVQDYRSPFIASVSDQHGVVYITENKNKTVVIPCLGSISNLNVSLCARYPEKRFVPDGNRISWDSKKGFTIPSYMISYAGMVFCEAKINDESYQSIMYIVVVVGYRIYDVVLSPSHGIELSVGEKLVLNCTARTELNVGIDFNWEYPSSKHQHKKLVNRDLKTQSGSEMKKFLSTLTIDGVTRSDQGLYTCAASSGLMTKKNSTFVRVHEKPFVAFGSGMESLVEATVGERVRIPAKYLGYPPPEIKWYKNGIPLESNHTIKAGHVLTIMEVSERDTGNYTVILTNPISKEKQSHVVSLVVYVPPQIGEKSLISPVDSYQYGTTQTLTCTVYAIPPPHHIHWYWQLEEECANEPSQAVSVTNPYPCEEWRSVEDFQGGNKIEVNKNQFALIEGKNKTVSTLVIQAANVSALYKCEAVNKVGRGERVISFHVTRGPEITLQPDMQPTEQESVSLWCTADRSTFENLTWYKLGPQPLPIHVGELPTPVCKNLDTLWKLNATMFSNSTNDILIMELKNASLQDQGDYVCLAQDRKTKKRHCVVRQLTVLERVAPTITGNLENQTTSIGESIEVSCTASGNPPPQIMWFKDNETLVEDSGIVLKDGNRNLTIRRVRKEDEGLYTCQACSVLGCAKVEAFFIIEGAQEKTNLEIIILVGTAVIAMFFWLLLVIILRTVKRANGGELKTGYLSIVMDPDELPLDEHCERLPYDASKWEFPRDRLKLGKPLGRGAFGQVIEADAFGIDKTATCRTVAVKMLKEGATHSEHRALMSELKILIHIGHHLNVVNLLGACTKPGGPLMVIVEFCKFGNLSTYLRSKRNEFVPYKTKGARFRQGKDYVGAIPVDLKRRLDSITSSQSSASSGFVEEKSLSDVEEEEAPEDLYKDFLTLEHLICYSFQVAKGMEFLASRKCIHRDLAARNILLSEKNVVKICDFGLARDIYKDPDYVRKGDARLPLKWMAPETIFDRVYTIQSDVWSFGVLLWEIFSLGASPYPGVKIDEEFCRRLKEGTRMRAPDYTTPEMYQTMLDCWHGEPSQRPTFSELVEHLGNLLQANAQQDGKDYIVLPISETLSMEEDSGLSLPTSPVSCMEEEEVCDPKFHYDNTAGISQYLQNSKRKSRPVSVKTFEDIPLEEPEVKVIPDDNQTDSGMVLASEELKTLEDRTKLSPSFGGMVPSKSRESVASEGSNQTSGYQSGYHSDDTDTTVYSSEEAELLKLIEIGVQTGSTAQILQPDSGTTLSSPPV
T8 sequence (P06239 whole entry, species assumed, the tested form may be a part): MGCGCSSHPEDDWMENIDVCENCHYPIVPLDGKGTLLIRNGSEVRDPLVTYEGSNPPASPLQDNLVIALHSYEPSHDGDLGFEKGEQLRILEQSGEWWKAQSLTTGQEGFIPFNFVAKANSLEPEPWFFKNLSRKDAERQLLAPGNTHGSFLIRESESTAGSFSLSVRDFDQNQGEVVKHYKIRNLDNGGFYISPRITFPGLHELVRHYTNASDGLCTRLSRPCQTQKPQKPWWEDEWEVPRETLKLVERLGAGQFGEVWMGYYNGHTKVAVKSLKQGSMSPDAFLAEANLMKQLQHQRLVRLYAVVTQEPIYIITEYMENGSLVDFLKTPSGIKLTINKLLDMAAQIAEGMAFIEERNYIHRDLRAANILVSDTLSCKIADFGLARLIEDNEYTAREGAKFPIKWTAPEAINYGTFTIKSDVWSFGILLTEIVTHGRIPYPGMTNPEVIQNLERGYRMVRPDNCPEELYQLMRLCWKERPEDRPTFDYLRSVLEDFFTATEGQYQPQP
T10 sequence (P08581 25-1390): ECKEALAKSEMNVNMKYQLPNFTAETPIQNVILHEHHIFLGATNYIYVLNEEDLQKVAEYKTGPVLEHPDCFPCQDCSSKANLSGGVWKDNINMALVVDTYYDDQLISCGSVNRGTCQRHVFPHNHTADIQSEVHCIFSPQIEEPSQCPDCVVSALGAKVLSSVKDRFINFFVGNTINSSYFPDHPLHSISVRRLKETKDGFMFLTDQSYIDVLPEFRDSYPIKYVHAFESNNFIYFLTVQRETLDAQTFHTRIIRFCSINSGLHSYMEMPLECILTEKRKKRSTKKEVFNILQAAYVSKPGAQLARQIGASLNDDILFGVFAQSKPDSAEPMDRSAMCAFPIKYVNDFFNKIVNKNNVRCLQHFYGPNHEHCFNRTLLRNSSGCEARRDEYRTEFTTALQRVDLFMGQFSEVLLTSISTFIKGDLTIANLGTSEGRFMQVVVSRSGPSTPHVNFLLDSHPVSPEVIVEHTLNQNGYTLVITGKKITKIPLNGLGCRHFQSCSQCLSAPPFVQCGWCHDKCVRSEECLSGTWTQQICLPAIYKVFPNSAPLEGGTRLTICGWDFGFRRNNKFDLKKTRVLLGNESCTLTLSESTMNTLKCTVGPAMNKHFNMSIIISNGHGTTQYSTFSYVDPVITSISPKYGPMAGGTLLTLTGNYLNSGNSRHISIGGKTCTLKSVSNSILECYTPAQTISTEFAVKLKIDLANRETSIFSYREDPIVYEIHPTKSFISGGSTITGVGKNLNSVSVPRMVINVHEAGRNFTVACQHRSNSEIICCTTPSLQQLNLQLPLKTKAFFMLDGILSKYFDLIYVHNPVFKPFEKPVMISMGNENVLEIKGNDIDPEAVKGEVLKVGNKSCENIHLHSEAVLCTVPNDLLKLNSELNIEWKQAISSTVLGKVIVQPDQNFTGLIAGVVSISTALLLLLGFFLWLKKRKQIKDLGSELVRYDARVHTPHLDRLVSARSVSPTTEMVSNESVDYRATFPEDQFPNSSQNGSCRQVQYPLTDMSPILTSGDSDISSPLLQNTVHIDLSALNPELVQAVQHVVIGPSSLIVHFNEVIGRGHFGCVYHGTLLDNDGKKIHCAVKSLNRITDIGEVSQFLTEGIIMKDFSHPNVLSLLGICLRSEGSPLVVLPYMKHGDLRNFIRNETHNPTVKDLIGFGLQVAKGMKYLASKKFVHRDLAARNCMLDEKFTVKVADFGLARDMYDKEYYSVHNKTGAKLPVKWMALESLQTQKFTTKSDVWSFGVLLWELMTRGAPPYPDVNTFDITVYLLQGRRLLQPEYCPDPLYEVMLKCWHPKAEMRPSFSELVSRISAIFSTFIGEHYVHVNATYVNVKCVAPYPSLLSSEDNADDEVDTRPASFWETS

| SMILES | pIC50 (ErbB2) | pIC50 (Zap-70) | pIC50 (EGFR) | pIC50 (Kdr) | pIC50 (AKT) | pIC50 (PDGFRB) | pIC50 (Itk) | pIC50 (Lck) | pIC50 (IGFR-1) | pIC50 (c-Met) |
| --- | --- | --- | --- | --- | --- | --- | --- | --- | --- | --- |
| COc1ccc(Nc2ncnc(N(C)c3cccc(C)c3)n2)cc1OC [Compound 800] | 5.17 to 5.94 | < 4.89 | > 5.94 | 5.17 to 5.94 | < 4.89 | < 4.89 | < 4.89 | 5.17 to 5.94 | 4.89 to 5.00 | 5.17 to 5.94 |
| COc1ccc(CNc2ncnc(Nc3cc(-c4ccco4)[nH]n3)n2)cc1OC [Compound 822] | 5.05 to 5.21 | 5.05 to 5.21 | 5.21 to 5.99 | 4.94 to 5.05 | < 4.94 | 5.21 to 5.99 | 5.21 to 5.99 | < 4.94 | 5.21 to 5.99 | 5.05 to 5.21 |
| COc1cc(Nc2ncnc(-c3cccnc3NC3CCc4ccccc43)n2)cc(OC)c1OC (centres unmarked) [Compound 846] | 5.13 to 5.29 | < 5.02 | 5.13 to 5.29 | 5.29 to 6.07 | < 5.02 | 5.29 to 6.07 | < 5.02 | 5.29 to 6.07 | < 5.02 | < 5.02 |
| COCCNc1ncnc(Nc2cc(-c3ccc(C(=O)OC)cc3)n[nH]2)n1 [Compound 816] | 5.02 to 5.19 | < 4.91 | < 4.91 | < 4.91 | < 4.91 | > 5.97 | 5.02 to 5.19 | < 4.91 | 4.91 to 5.02 | < 4.91 |
| COC(=O)c1ccc(-c2cc(Nc3ncnc(NC4=NC(=O)CS4)n3)[nH]n2)cc1 [Compound 881] | 5.23 to 6.01 | < 4.96 | 5.23 to 6.01 | 5.23 to 6.01 | < 4.96 | 5.23 to 6.01 | 5.23 to 6.01 | < 4.96 | 5.23 to 6.01 | 5.23 to 6.01 |
| COc1ccc(Nc2ncnc(Nc3ccc(N4CCCCC4)cc3)n2)cc1OC [Compound 899] | 5.23 to 6.01 | < 4.96 | 5.23 to 6.01 | 5.23 to 6.01 | 5.06 to 5.23 | > 6.01 | 5.23 to 6.01 | 5.23 to 6.01 | 5.06 to 5.23 | 5.23 to 6.01 |
| CN(c1cccc(Cl)c1)c1ncnc(Nc2cccc(OC(F)(F)F)c2)n1 [Compound 875] | 5.22 to 6.00 | < 4.94 | > 6.00 | 5.05 to 5.22 | < 4.94 | 5.22 to 6.00 | 4.94 to 5.05 | < 4.94 | < 4.94 | 5.05 to 5.22 |
| COc1cc(Nc2ncnc(NC(=O)Cc3ccccc3)n2)cc(OC)c1OC [Compound 679] | 5.05 to 5.22 | < 4.94 | 5.22 to 5.99 | 4.94 to 5.05 | < 4.94 | 4.94 to 5.05 | < 4.94 | 5.22 to 5.99 | < 4.94 | < 4.94 |

The remaining lines, values ahead:

| pIC50 (ErbB2) | pIC50 (Zap-70) | pIC50 (EGFR) | pIC50 (Kdr) | pIC50 (AKT) | pIC50 (PDGFRB) | pIC50 (Itk) | pIC50 (Lck) | pIC50 (IGFR-1) | pIC50 (c-Met) | SMILES |
| --- | --- | --- | --- | --- | --- | --- | --- | --- | --- | --- |
| 5.24 to 6.01 | < 4.96 | > 6.01 | > 6.01 | < 4.96 | > 6.01 | < 4.96 | 5.24 to 6.01 | < 4.96 | 5.24 to 6.01 | O=C(O)Cc1cccc(Nc2ncnc(-c3cccnc3NCc3ccccc3)n2)c1 [Compound 1099] |
| < 4.97 | < 4.97 | < 4.97 | > 6.02 | < 4.97 | > 6.02 | < 4.97 | < 4.97 | < 4.97 | < 4.97 | c1ccc(Nc2ncccc2-c2ncnc(Nc3cccc(Cn4ccnn4)c3)n2)cc1 [Compound 1095] |
| 5.32 to 6.09 | < 5.04 | 5.32 to 6.09 | 5.32 to 6.09 | 5.32 to 6.09 | 5.32 to 6.09 | 5.32 to 6.09 | < 5.04 | 5.32 to 6.09 | 5.32 to 6.09 | Clc1cc(Nc2ncnc(Nc3ccc4c(cnn4Cc4ccccc4)c3)n2)cc(Cl)c1Cl [Compound 872] |
| 5.03 to 5.19 | < 4.92 | 5.19 to 5.97 | < 4.92 | < 4.92 | < 4.92 | < 4.92 | 5.19 to 5.97 | < 4.92 | < 4.92 | COc1ccc(Nc2ncnc(NCc3cccc(Cl)c3)n2)cc1OC [Compound 792] |
| 5.34 to 6.12 | < 5.06 | < 5.06 | 5.17 to 5.34 | < 5.06 | 5.34 to 6.12 | < 5.06 | < 5.06 | < 5.06 | < 5.06 | COc1cc(Nc2ncnc(-c3cccnc3Nc3cccc(Oc4ccccc4)c3)n2)cc(OC)c1OC [Compound 840] |
| < 5.02 | < 5.02 | < 5.02 | 5.29 to 6.07 | 5.13 to 5.29 | 5.29 to 6.07 | < 5.02 | < 5.02 | < 5.02 | < 5.02 | COc1ccc(CNc2nc3ccccc3n2-c2ncnc(Nc3cccc(C(=O)O)c3)n2)cc1 [Compound 1070] |
| > 6.02 | < 4.97 | > 6.02 | 5.25 to 6.02 | < 4.97 | 4.97 to 5.08 | 5.08 to 5.25 | 5.08 to 5.25 | 5.25 to 6.02 | < 4.97 | Brc1cccc(Nc2ncnc(Nc3cccc(Cn4ccnn4)c3)n2)c1 [Compound 961] |
| 5.32 to 6.10 | 5.05 to 5.15 | 5.15 to 5.32 | > 6.10 | 5.05 to 5.15 | > 6.10 | 5.15 to 5.32 | 5.32 to 6.10 | 5.15 to 5.32 | 5.32 to 6.10 | c1cc(Cn2ccnn2)cc(Nc2ncnc(-n3c(Nc4ccc5[nH]ccc5c4)nc4ccccc43)n2)c1 [Compound 963] |
| < 4.94 | < 4.94 | 5.04 to 5.21 | 5.21 to 5.99 | 5.04 to 5.21 | 5.21 to 5.99 | 5.21 to 5.99 | 5.21 to 5.99 | < 4.94 | 5.04 to 5.21 | CC(C)Nc1ncccc1-c1ncnc(Nc2cccc(Cn3ccnn3)c2)n1 [Compound 1098] |
| < 5.04 | < 5.04 | 5.15 to 5.31 | < 5.04 | < 5.04 | 5.15 to 5.31 | < 5.04 | < 5.04 | 5.15 to 5.31 | > 6.09 | CNS(=O)(=O)Cc1ccc(Nc2ncnc(Nc3cc(-c4ccc(C(=O)OC)cc4)n[nH]3)n2)cc1 [Compound 883] |
| > 6.09 | < 5.04 | > 6.09 | 5.31 to 6.09 | < 5.04 | 5.31 to 6.09 | 5.04 to 5.15 | 5.04 to 5.15 | 5.15 to 5.31 | > 6.09 | CN(c1ccc2c(cnn2Cc2ccccc2)c1)c1ncnc(Nc2cccc(Cc3nnn[nH]3)c2)n1 [Compound 671] |
| < 4.93 | < 4.93 | 5.20 to 5.98 | < 4.93 | < 4.93 | 5.20 to 5.98 | 5.20 to 5.98 | < 4.93 | < 4.93 | < 4.93 | COc1ccc(Nc2ncnc(N(C)CC(O)c3ccccc3)n2)cc1OC (centres unmarked) [Compound 868] |
